Measured values as given in patent US9688710B2, “Inhibitors of sodium glucose cotransporter 1” (LEXICON PHARMACEUTICALS, INC., priority 2012, dated 2017).

Assays:
KKay mice [1] = assay: Glucose challenge in KKAy diabetic mice (glucose excursion); format: in vivo; details: KKay mice on 45% high fat diet, 1.5 and 4.5 mg/kg once daily, day 22, glucose bolus 2 g/kg 15 hours after dosing
Text: (§1) Twelve week-old male KKay mice were purchased from The Jackson Laboratory (Bar Harbor, Me.). They were switched to 45% high fat diet (HFD; diet D12451i, Research Diets) and housed individually for one week before study. The mice were randomized into the following groups by their HbA1c levels and body weights:
(§2) Mice received either vehicle or Compound C once daily at […] for 36 days. Body weight and food consumption were monitored daily. On day 22, blood was collected before glucose challenge for baseline glucose. Mice were then given a bolus dose of glucose (2 g/kg, 10 mL/kg). Blood was collected at 30, 60 and 120 minutes after glucose challenge to estimate the glucose excursion. Blood glucose was analyzed by Cobas Integra 400 Autoanalyzer (Roche Diagnostics).

KKay mice [2] = assay: HbA1c in KKAy diabetic mice; format: in vivo; details: 1.5 and 4.5 mg/kg once daily, day 26
Text: as §1, §2
On day 26 after dosing, blood was collected for HbA1c. HbA1c was measured using a meter manufactured by Bayer according to the protocol recommended by Bayer.

[3] = biological target: Human sodium/glucose co-transporter type 2 (SGLT2) (Homo sapiens (Human), UniProt P31639); assay: In vitro human SGLT2 inhibition assay (14C-AMG uptake); format: cell-based; design: key to SGLT2 (human SGLT2 IC50): ***: a value less than 0.01 μM; **: a value less than 0.1 μM; *: a value less than 1 μM; —: a value not measured or exceeding μM; details: HEK293 cells expressing human HA-SGLT2, 14C-AMG uptake
In short: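 HEK293 cells stably expressing HA-tagged human SGLT2, seeded overnight, washed into Na+-containing HEPES/Tris uptake buffer with 1 mg/mL BSA, pH 7.3. Compound added, then 14C-AMG (100 nCi); 1-2 h at 37 °C, 5% CO2. Washed cells counted by scintillation for 14C-AMG uptake.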

[4] = biological target: Human sodium/glucose co-transporter type 1 (SGLT1) (Homo sapiens (Human), UniProt P13866); assay: In vitro human SGLT1 inhibition assay (14C-AMG uptake); format: cell-based; design: key to SGLT1 (human SGLT1 IC50): ***: a value less than 0.01 μM; **: a value less than 0.1 μM; *: a value less than 1 μM; —: a value not measured or exceeding μM; details: HEK293 cells expressing human HA-SGLT1, 14C-AMG uptake
In short: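 HEK293 cells stably expressing human HA-tagged SGLT1 (30,000/well, overnight) were washed into Na+-containing uptake buffer (140 mM NaCl, HEPES/Tris, 1 mg/mL BSA, pH 7.3). Cells then received compound plus 100 nCi 14C-AMG for 1–2 h at 37 °C; after washing, AMG uptake was quantified by scintillation counting.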

KKay mice [5] = assay: Postprandial tGLP-1 in KKAy diabetic mice; format: in vivo; details: 4.5 mpk group, day 29, 60 minutes after glucose bolus 2 g/kg
Text: as §1, §2
On day 29, the mice again received a glucose bolus (2 g/kg, 10 mL/kg). Blood was collected at 60 minutes after glucose challenge and analyzed for tGLP-1. Plasma was prepared by centrifuging blood samples at 1000 rpm for 10 minutes at 4° C. tGPL-1 was analyzed by ELISA (Glucagon-Like Peptide-1 Total ELISA Kit, catalog #EZGLP1T-36K, Millipore, St. Charles, Mo.) according to the protocol recommended by Millipore.

Human sodium/glucose co-transporter type 2 (SGLT2), sequence (P31639 whole entry): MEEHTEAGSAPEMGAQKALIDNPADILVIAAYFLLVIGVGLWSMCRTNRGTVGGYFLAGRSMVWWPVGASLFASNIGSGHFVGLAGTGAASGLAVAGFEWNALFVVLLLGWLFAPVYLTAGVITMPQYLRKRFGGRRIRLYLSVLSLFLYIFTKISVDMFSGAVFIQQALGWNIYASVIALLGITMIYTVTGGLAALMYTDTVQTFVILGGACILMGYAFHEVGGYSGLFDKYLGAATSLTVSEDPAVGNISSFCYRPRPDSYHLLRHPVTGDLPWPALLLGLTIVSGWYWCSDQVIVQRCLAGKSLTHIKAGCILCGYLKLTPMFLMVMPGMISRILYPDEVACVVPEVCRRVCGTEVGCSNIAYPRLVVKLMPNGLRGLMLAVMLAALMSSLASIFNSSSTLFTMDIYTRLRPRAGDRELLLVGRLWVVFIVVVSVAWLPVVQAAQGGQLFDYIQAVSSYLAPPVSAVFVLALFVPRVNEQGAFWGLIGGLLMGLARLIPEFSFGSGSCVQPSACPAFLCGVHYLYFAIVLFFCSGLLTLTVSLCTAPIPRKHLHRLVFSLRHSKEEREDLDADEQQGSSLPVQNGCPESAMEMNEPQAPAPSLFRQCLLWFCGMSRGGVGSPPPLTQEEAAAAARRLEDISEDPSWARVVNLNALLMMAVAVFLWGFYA
Human sodium/glucose co-transporter type 1 (SGLT1), sequence (P13866 whole entry): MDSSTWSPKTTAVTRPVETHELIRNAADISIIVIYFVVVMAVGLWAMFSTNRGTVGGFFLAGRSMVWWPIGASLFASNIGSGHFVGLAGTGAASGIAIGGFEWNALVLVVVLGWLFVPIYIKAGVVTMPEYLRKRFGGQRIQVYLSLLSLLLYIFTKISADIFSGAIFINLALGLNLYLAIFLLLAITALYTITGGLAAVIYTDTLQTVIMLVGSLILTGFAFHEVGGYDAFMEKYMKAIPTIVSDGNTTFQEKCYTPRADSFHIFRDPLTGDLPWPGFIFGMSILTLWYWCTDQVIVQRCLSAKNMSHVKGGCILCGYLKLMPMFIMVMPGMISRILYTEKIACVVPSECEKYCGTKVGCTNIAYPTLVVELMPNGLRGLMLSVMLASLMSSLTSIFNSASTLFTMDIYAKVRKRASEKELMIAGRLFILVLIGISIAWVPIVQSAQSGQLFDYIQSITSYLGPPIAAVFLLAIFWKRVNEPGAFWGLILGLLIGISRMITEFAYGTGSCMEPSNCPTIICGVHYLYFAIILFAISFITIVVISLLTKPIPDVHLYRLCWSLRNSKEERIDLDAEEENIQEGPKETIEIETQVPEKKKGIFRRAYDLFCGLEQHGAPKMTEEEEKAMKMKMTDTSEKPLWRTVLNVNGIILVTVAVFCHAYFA

| IC50 [3] | IC50 [4] | Structure (SMILES) | further results |
| --- | --- | --- | --- |
| < 10 nM | < 10 nM | CS[C@H]1O[C@@H](c2ccc(C)c(Cc3ccc(OCCCNC(C)(C)CO)cc3)c2)[C@H](O)[C@@H](O)[C@@H]1O [(2S,3R,4R,5S,6R)-2-(3-(4-(3-((1-hydroxy-2-methylpropan-2-yl)amino)propoxy)benzyl)-4-methylphenyl)-6-(methylthio)tetrahydro-2H-pyran-3,4,5-triol] | glucose excursion after glucose challenge (KKay mice [1]): dose-dependent decrease in glucose excursion; HbA1c (KKay mice [2]): significant, dose-dependent reduction in HbA1c; postprandial tGLP-1 (KKay mice [5]): significant increase in postprandial tGLP-1 |
| < 10 nM | < 10 nM | CS[C@H]1O[C@@H](c2ccc(C)c(Cc3ccc(OCCCC(=O)N[C@H](C)C(N)=O)cc3)c2)[C@H](O)[C@@H](O)[C@@H]1O [N-((R)-1-amino-1-oxopropan-2-yl)-4-(4-(2-methyl-5-((2S,3R,4R,5S,6R)-3,4,5-trihydroxy-6-(methylthio)tetrahydro-2H-pyran-2-yl)benzyl)phenoxy)butanamide] |  |
| < 10 nM | < 100 nM | CS[C@H]1O[C@@H](c2ccc(C)c(Cc3ccc(OCCCC(=O)N[C@@H](C)C(N)=O)cc3)c2)[C@H](O)[C@@H](O)[C@@H]1O [N-((S)-1-amino-1-oxopropan-2-yl)-4-(4-(2-methyl-5-((2S,3R,4R,5S,6R)-3,4,5-trihydroxy-6-(methylthio)tetrahydro-2H-pyran-2-yl)benzyl)phenoxy)butanamide] |  |
| < 10 nM | < 10 nM | CCNC(=O)CCCOc1ccc(Cc2cc([C@@H]3O[C@H](SC)[C@@H](O)[C@H](O)[C@H]3O)ccc2C)cc1 [N-ethyl-4-(4-(2-methyl-5-((2S,3R,4R,5S,6R)-3,4,5-trihydroxy-6-(methylthio)tetrahydro-2H-pyran-2-yl)benzyl)phenoxy)butanamide] |  |
| < 10 nM | < 100 nM | CS[C@H]1O[C@@H](c2ccc(Cl)c(Cc3ccc(OCCNC(=O)OC(C)(C)C)cc3)c2)[C@H](O)[C@@H](O)[C@@H]1O [tert-butyl (2-(4-(2-chloro-5-((2S,3R,4R,5S,6R)-3,4,5-trihydroxy-6-(methylthio)tetrahydro-2H-pyran-2-yl)benzyl)phenoxy)ethyl)carbamate] |  |

The remaining lines, values behind:

| Structure (SMILES) | IC50 [3] | IC50 [4] | further results |
| --- | --- | --- | --- |
| CS[C@H]1O[C@@H](c2ccc(Cl)c(Cc3ccc(OCCCC(=O)N[C@@H](CO)C(N)=O)cc3)c2)[C@H](O)[C@@H](O)[C@@H]1O [N-((S)-1-amino-3-hydroxy-1-oxopropan-2-yl)-4-(4-(2-chloro-5-((2S,3R,4R,5S,6R)-3,4,5-trihydroxy-6-(methylthio)tetrahydro-2H-pyran-2-yl)benzyl)phenoxy)butanamide] | < 10 nM | < 100 nM |  |
| CS[C@H]1O[C@@H](c2ccc(C)c(Cc3ccc(OCCCC(=O)N[C@@H](CO)C(N)=O)cc3)c2)[C@H](O)[C@@H](O)[C@@H]1O [N-((S)-1-amino-3-hydroxy-1-oxopropan-2-yl)-4-(4-(2-methyl-5-((2S,3R,4R,5S,6R)-3,4,5-trihydroxy-6-(methylthio)tetrahydro-2H-pyran-2-yl)benzyl)phenoxy)butanamide] | < 10 nM | < 100 nM |  |
| COC(=O)CCCOc1ccc(Cc2cc([C@@H]3O[C@H](SC)[C@@H](O)[C@H](O)[C@H]3O)ccc2Cl)cc1 [methyl 4-(4-(2-chloro-5-((2S,3R,4R,5S,6R)-3,4,5-trihydroxy-6-(methylthio)tetrahydro-2H-pyran-2-yl)benzyl)phenoxy)butanoate] |  |  | SGLT2 (human SGLT2 IC50) [3]: —; SGLT1 (human SGLT1 IC50) [4]: — |
| CS[C@H]1O[C@@H](c2ccc(C)c(Cc3ccc(CCCC(=O)NC(C)(C)C(=O)NC4CCN(C(=O)OC(C)(C)C)CC4)cc3)c2)[C@H](O)[C@@H](O)[C@@H]1O [tert-butyl 4-(2-methyl-2-(4-(4-(2-methyl-5-((2S,3R,4R,5S,6R)-3,4,5-trihydroxy-6-(methylthio)tetrahydro-2H-pyran-2-yl)benzyl)phenyl)butanamido)propanamido)piperidine-1-carboxylate] | < 10 nM | < 10 nM |  |
| CS[C@H]1O[C@@H](c2ccc(C)c(Cc3ccc(CCCC(=O)NC(C)(C)C(=O)N4CCN(C(=O)OC(C)(C)C)CC4)cc3)c2)[C@H](O)[C@@H](O)[C@@H]1O [tert-butyl 4-(2-methyl-2-(4-(4-(2-methyl-5-((2S,3R,4R,5S,6R)-3,4,5-trihydroxy-6-(methylthio)tetrahydro-2H-pyran-2-yl)benzyl)phenyl)butanamido)propanoyl)piperazine-1-carboxylate] | < 10 nM | < 10 nM |  |
| CS[C@H]1O[C@@H](c2ccc(C)c(Cc3ccc(CCCC(=O)NC(C)(C)C(=O)N4CCC(NC(=O)OC(C)(C)C)CC4)cc3)c2)[C@H](O)[C@@H](O)[C@@H]1O [tert-butyl (1-(2-methyl-2-(4-(4-(2-methyl-5-((2S,3R,4R,5S,6R)-3,4,5-trihydroxy-6-(methylthio)tetrahydro-2H-pyran-2-yl)benzyl)phenyl)butanamido)propanoyl)piperidin-4-yl)carbamate] | < 10 nM | < 10 nM |  |
